Source: patent publication US10363247B2, “(S,E)-3-(6-aminopyridin-3-yl)-N-((5-(4-(3-fluoro-3-methylpyrrolidine-1-carbonyl)phenyl-7-(4-fluorophenyl)benzofuran-2-yl)methyl)acrylamide for the treatment of cancer” (Karyopharm Therapeutics Inc., priority 2015, dated 2019)

Key:
[1] = test system: MS751 cells; experiment: MTT cell proliferation assay, MS751 cells; assay type: cell-based, human; settings: approximately 64-72 hours incubation
Experimental: (§1) The MTT cell proliferation assay was used to study the cytotoxic properties of the compounds. The assay was performed according to the method described by Roche Molecular Biochemicals, with minor modifications. The assay is based on the cleavage of the tetrazolium salt, MTT, in the presence of an electron-coupling reagent. The water-insoluble formazan salt produced must be solubilized in an additional step. Cells grown in a 96-well tissue culture plate were incubated with the MTT solution for approximately 4 hours. After this incubation period, a water-insoluble formazan dye formed. After solubilization, the formazan dye was quantitated using a scanning multi-well spectrophotometer (ELISA reader). […] The cells were seeded at 5,000-10,000 cells in each well of 96-well plate in 100 μL of fresh culture medium and were allowed to attach overnight. The stock solutions of the compounds were diluted in 100 μL cell culture medium to obtain eight concentrations of each test compound, ranging from 1 nM to 30 μM. […] All optical densities were measured at 490 nm using a Vmax Kinetic Microplate Reader (Molecular Devices). In most cases, the assay was performed in duplicate and the results were presented as a mean percent inhibition to the negative control±SE. The following formula was used to calculate the percent of inhibition: Inhibition (%)=(1-(ODo/OD))×100.
(§2) The compounds were tested against MS751, Z138 and 3T3 cells. The MS751 cell line is derived from a metastasis to lymph node of human cervix from a patient diagnosed with squameous cell carcinoma of the cervix. The Z138 cell line is a mature B-cell acute lymphoblastic leukemia cell line derived from a patient with chronic lymphocytic leukemia. 3T3 cells are standard fibroblast cells; they were originally isolated from Swiss mouse embryo tissue.

[2] = test system: Z138 cells; experiment: MTT cell proliferation assay, Z138 cells; assay type: cell-based, human; settings: approximately 64-72 hours incubation
Experimental: as §1, §2

[3] = test system: 3T3 cells; experiment: MTT cell proliferation assay, 3T3 cells; assay type: cell-based, mouse
Experimental: as §1, §2

[4] = Plasma protein binding; assay type: in vitro ADME; settings: human plasma
[5] = test system: Molt-4 T-ALL cancer xenograft; NCI-H520 lung cancer xenograft; experiment: Xenograft models in mice (Molt-4 T-ALL in SCID mice; NCI-H520 lung cancer in nu/nu mice); assay type: in vivo, mouse; settings: Molt-4 xenograft 10 and 20 mg/kg PO BID; H520 xenograft 100 mg/kg PO BID
Experimental: In this study, the impact of the compound of Example 2 on tumor growth was tested using the Molt-4 T-ALL cancer xenograft model in SCID mice. MOLT 4 (CRL-1582) acute lymphoblastic leukemia cells were obtained from ATCC. These cells were grown in RPMI-1640 medium supplemented with 10% fetal bovine serum, 1% penicillin and streptomycin. Cells were sub-cultured by transferring floating cells to a new flask and trypsinizing adherent cells before subculturing at a ratio of 1:4. Molt-4 cells were harvested by centrifugation and counted using a hemocytometer. Cells were resuspended in PBS at a 5×10^7 cells per mL. Cells were placed on ice and mixed with an equal volume of Matrigel (BD Biosciences CB-40234). This mixture was kept on ice and injected into the left flank of mice in a volume of […], equivalent to 5×10^6 cells per mouse. Twenty-four (24) CB-17 SCID mice were inoculated subcutaneously in the left flank Molt-4 cells. Treatment was initiated when the tumors reached a mean volume of ˜135 mm^3. […] Animal weights and conditions were recorded daily, and tumors were measured on Mondays, Wednesdays and Fridays.
In this study, the impact of the compound of Example 2 on tumor growth was tested using the NCI-H520 lung cancer xenograft model in nu/nu mice. […] Animal weights and conditions were recorded daily, and tumors were measured on Mondays, Wednesdays and Fridays.

[6] = Homo sapiens, MS751, MS751 cells
[7] = Homo sapiens, Z-138, Z138 cells
[8] = Mus musculus, NIH3T3, approximately 64-72 hours incubation
[9] = approximately 64-72 hours incubation

Row | Fraction of Bound [4] | SMILES | IC50 [1, 6] | IC50 [2, 7] | IC50 [3, 8] | IC50 ([1]; MS751 cells) | IC50 ([2]; Z138 cells) | IC50 [3, 9] | efficacy in vivo (tumor growth) [5]
1 | – | CC1(F)CCN(C(=O)c2ccc(-c3cc(-c4ccc(F)cc4)c4oc(CNC(=O)/C=C/c5ccc(N)nc5)cc4c3)cc2)C1 (racemic) [Example 1, (±)-(E)-3-(6-aminopyridin-3-yl)-N-((5-(4-(3-fluoro-3-methylpyrrolidine-1-carbonyl)phenyl)-7-(4-fluorophenyl)benzofuran-2-yl)methyl)acrylamide] | 0.03 µM | < 0.005 µM | 1.26 µM | – | – | – | –
2 | – | CC1(F)CCN(C(=O)c2ccc(-c3cc(C(F)(F)F)c4oc(CNC(=O)/C=C/c5ccc(N)nc5)cc4c3)cc2)C1 (single isomer, unassigned) [Example X-2, (E)-3-(6-aminopyridin-3-yl)-N-((5-(4-(3-fluoro-3-methylpyrrolidine-1-carbonyl)phenyl)-7-(trifluoromethyl)benzofuran-2-yl)methyl)acrylamide] | – | – | – | 0.52 µM | 0.24 µM | > 10 µM | –
3 | – | CC1(F)CCN(C(=O)c2ccc(-c3cc(C(F)(F)F)c4oc(CNC(=O)/C=C/c5ccc(N)nc5)cc4c3)cc2)C1 (single isomer, unassigned) [Example X-3, (E)-3-(6-aminopyridin-3-yl)-N-((5-(4-(3-fluoro-3-methylpyrrolidine-1-carbonyl)phenyl)-7-(trifluoromethyl)benzofuran-2-yl)methyl)acrylamide] | – | – | > 10 µM | 0.4 µM | 0.4 µM | – | –
4 | – | CC1(F)CCN(C(=O)c2ccc(-c3cc(C(F)(F)F)c4oc(CNC(=O)/C=C/c5ccc(N)nc5)cc4c3)cc2)C1 (single isomer, unassigned) [Example X-4, (E)-3-(6-aminopyridin-3-yl)-N-((5-(4-(3-fluoro-3-methylpyrrolidine-1-carbonyl)phenyl)-7-(trifluoromethyl)benzofuran-2-yl)methyl)acrylamide] | – | – | – | 2.1 µM | 1.5 µM | > 10 µM | –
5 | 95.2% | C[C@]1(F)CCN(C(=O)c2ccc(-c3cc(-c4ccc(F)cc4)c4oc(CNC(=O)/C=C/c5ccc(N)nc5)cc4c3)cc2)C1 [Example 2, (S,E)-3-(6-aminopyridin-3-yl)-N-((5-(4-(3-fluoro-3-methylpyrrolidine-1-carbonyl)phenyl)-7-(4-fluorophenyl)benzofuran-2-yl)methyl)acrylamide] | 0.008 µM | < 0.005 µM | 1.18 µM | – | – | – | demonstrated efficacy in vivo
6 | – | C[C@@]1(F)CCN(C(=O)c2ccc(-c3cc(-c4ccc(F)cc4)c4oc(CNC(=O)/C=C/c5ccc(N)nc5)cc4c3)cc2)C1 [Example 3, (R,E)-3-(6-aminopyridin-3-yl)-N-((5-(4-(3-fluoro-3-methylpyrrolidine-1-carbonyl)phenyl)-7-(4-fluorophenyl)benzofuran-2-yl)methyl)acrylamide] | 0.09 µM | 0.02 µM | > 10 µM | – | – | – | –
7 | 100% | Nc1ccc(/C=C/C(=O)NCc2cc3cc(-c4ccc(C(=O)N5CCC(F)(F)CC5)cc4)cc(-c4ccc(F)cc4)c3o2)cn1 [Example X-1, (E)-3-(6-aminopyridin-3-yl)-N-((5-(4-(4,4-difluoropiperidine-1-carbonyl)phenyl)-7-(4-fluorophenyl)benzofuran-2-yl)methyl)acrylamide] | 0.05 µM | 0.018 µM | 3.6 µM | – | – | – | –
